Reference: ChEMBL document CHEMBL3596165, “Synthesis, structure elucidation and identification of antiproliferative activities of a novel class of thiophene bioisosteres bearing the privileged 7,8-dihydroimidazo[2,1-c][1,2,4]triazin-4(6H)-one scaffold” (Bioorg Med Chem, 2015)
pIC50: −log10 of the molar value.

What was measured:
HeLa [1] = test: Antiproliferative activity against human HeLa cells at 50 ug/ml after 24 hrs by BrdUrd incorporation assay; type: functional; conditions: read-out: GI
HeLa [2] = test: Antiproliferative activity against human HeLa cells at 50 ug/ml after 48 hrs by BrdUrd incorporation assay; type: functional; conditions: read-out: GI
HeLa [3] = test: Antiproliferative activity against human HeLa cells at 50 ug/ml after 72 hrs by BrdUrd incorporation assay; type: functional; conditions: read-out: GI
T47D [4] = test: Antiproliferative activity against human T47D cells at 50 ug/ml after 24 hrs by BrdUrd incorporation assay; type: functional; conditions: read-out: GI
T47D [5] = test: Antiproliferative activity against human T47D cells at 50 ug/ml after 48 hrs by BrdUrd incorporation assay; type: functional; conditions: read-out: GI
T47D [6] = test: Antiproliferative activity against human T47D cells at 50 ug/ml after 72 hrs by BrdUrd incorporation assay; type: functional; conditions: read-out: GI
Vero [7] = test: Antiproliferative activity against African green monkey Vero cells at 50 ug/ml after 24 hrs by BrdUrd incorporation assay; type: cell-based; conditions: chlorocebus sabaeus
[8] = Antiproliferative activity against African green monkey Vero cells at 50 ug/ml after 48 hrs by BrdUrd incorporation assay; type: cell-based; conditions: chlorocebus sabaeus, read-out: GI
[9] = Antiproliferative activity against African green monkey Vero cells at 50 ug/ml after 72 hrs by BrdUrd incorporation assay; type: cell-based; conditions: chlorocebus sabaeus, read-out: GI
A549 [10] = test: Antiproliferative activity against human A549 cells at 50 ug/ml after 24 hrs by BrdUrd incorporation assay; type: functional; conditions: A549, 24 h, read-out: GI
A549 [11] = test: Antiproliferative activity against human A549 cells at 50 ug/ml after 48 hrs by BrdUrd incorporation assay; type: functional; conditions: A549, 48 h, read-out: GI
A549 [12] = test: Antiproliferative activity against human A549 cells at 50 ug/ml after 72 hrs by BrdUrd incorporation assay; type: functional; conditions: A549, 72 h, read-out: GI
TOV112D [13] = test: Antiproliferative activity against human TOV112D cells at 50 ug/ml after 24 hrs by BrdUrd incorporation assay; type: functional; conditions: read-out: GI
TOV112D [14] = test: Antiproliferative activity against human TOV112D cells at 50 ug/ml after 48 hrs by BrdUrd incorporation assay; type: functional; conditions: read-out: GI
TOV112D [15] = test: Antiproliferative activity against human TOV112D cells at 50 ug/ml after 72 hrs by BrdUrd incorporation assay; type: functional; conditions: read-out: GI
Vero [16] = test: Antiproliferative activity against African green monkey Vero cells after 24 hrs by BrdUrd incorporation assay; type: cell-based; conditions: chlorocebus sabaeus
Vero [17] = test: Antiproliferative activity against African green monkey Vero cells after 48 hrs by BrdUrd incorporation assay; type: cell-based; conditions: Chlorocebus sabaeus
Vero [18] = test: Antiproliferative activity against African green monkey Vero cells after 72 hrs by BrdUrd incorporation assay; type: cell-based; conditions: Chlorocebus sabaeus
A549 [19] = test: Antiproliferative activity against human A549 cells after 24 hrs by BrdUrd incorporation assay; type: functional, cell-based; conditions: A549, 24 h
A549 [20] = test: Antiproliferative activity against human A549 cells after 48 hrs by BrdUrd incorporation assay; type: functional, cell-based; conditions: A549, 48 h
A549 [21] = test: Antiproliferative activity against human A549 cells after 72 hrs by BrdUrd incorporation assay; type: functional, cell-based; conditions: A549, 72 h
HeLa [22] = test: Antiproliferative activity against human HeLa cells after 24 hrs by BrdUrd incorporation assay; type: functional, cell-based
HeLa [23] = test: Antiproliferative activity against human HeLa cells after 48 hrs by BrdUrd incorporation assay; type: functional, cell-based
HeLa [24] = test: Antiproliferative activity against human HeLa cells after 72 hrs by BrdUrd incorporation assay; type: functional, cell-based
T47D [25] = test: Antiproliferative activity against human T47D cells after 24 hrs by BrdUrd incorporation assay; type: functional, cell-based
T47D [26] = test: Antiproliferative activity against human T47D cells after 48 hrs by BrdUrd incorporation assay; type: functional, cell-based
T47D [27] = test: Antiproliferative activity against human T47D cells after 72 hrs by BrdUrd incorporation assay; type: functional, cell-based
TOV112D [28] = test: Antiproliferative activity against human TOV112D cells after 24 hrs by BrdUrd incorporation assay; type: functional, cell-based
TOV112D [29] = test: Antiproliferative activity against human TOV112D cells after 48 hrs by BrdUrd incorporation assay; type: functional, cell-based
TOV112D [30] = test: Antiproliferative activity against human TOV112D cells after 72 hrs by BrdUrd incorporation assay; type: functional, cell-based

| pIC50 (A549 [19]) | pIC50 (A549 [20]) | Structure (SMILES) | inhibition of growth at 50 µg/mL (HeLa [1]) [%] | inhibition of growth at 50 µg/mL (HeLa [2]) [%] | inhibition of growth at 50 µg/mL (HeLa [3]) [%] | inhibition of growth at 50 µg/mL (T47D [4]) [%] | inhibition of growth at 50 µg/mL (T47D [5]) [%] | inhibition of growth at 50 µg/mL (T47D [6]) [%] | growth inhibition (GI) (Vero [7]) [%] | inhibition at 48 h, 50 ug/ml [8] [%] | inhibition at 72 h, 50 ug/ml [9] [%] | inhibition of growth at 50 µg/mL (A549 [10]) [%] | inhibition of growth at 50 µg/mL (A549 [11]) [%] | inhibition of growth at 50 µg/mL (A549 [12]) [%] | inhibition of growth at 50 µg/mL (TOV112D [13]) [%] | inhibition of growth at 50 µg/mL (TOV112D [14]) [%] | inhibition of growth at 50 µg/mL (TOV112D [15]) [%] | pIC50 (Vero [16]) | pIC50 (Vero [17]) | pIC50 (Vero [18]) | other results |
| --- | --- | --- | --- | --- | --- | --- | --- | --- | --- | --- | --- | --- | --- | --- | --- | --- | --- | --- | --- | --- | --- |
| – | – | Cc1cccc(N2CCn3c2nnc(-c2ccco2)c3=O)c1C | 60 | 75 | 90 | 0 | 15 | 25 | – | – | – | – | – | – | – | – | – | – | – | – | – |
| – | – | Cc1ccccc1N1CCn2c1nnc(-c1ccco1)c2=O | 25 | 25 | 50 | 25 | 50 | 75 | – | – | – | – | – | – | – | – | – | – | – | – | – |
| < 3.82 | 3.89 | Cc1cccc(N2CCn3c2nnc(-c2cccs2)c3=O)c1C | 50 | 65 | 75 | 90 | 100 | 100 | 25 | 55 | 90 | 45 | 60 | 90 | 40 | 75 | 95 | < 3.82 | 3.85 | 4.05 | pIC50 (A549 [21]): 4.05; pIC50 (HeLa [22]): 3.82; pIC50 (HeLa [23]): 3.92; pIC50 (HeLa [24]): 4.00; pIC50 (T47D [25]): 4.05; pIC50 (T47D [26]): 4.10; pIC50 (T47D [27]): 4.10; pIC50 (TOV112D [28]): < 3.82; pIC50 (TOV112D [29]): 4.00; pIC50 (TOV112D [30]): 4.10 |
| 4.00 | 4.10 | Cc1ccccc1N1CCn2c1nnc(-c1cccs1)c2=O | 45 | 75 | 90 | 80 | 90 | 100 | 25 | 50 | 90 | 80 | 95 | 100 | 90 | 100 | 100 | < 3.80 | 3.80 | 4.05 | pIC50 (A549 [21]): 4.10; pIC50 (HeLa [22]): < 3.80; pIC50 (HeLa [23]): 3.96; pIC50 (HeLa [24]): 4.05; pIC50 (T47D [25]): 4.00; pIC50 (T47D [26]): 4.05; pIC50 (T47D [27]): 4.10; pIC50 (TOV112D [28]): 4.05; pIC50 (TOV112D [29]): 4.10; pIC50 (TOV112D [30]): 4.10 |
| – | – | O=c1c(-c2ccco2)nnc2n1CCN2c1ccccc1 | 50 | 75 | 100 | 50 | 85 | 95 | – | – | – | – | – | – | – | – | – | – | – | – | – |
| – | – | COc1ccccc1N1CCn2c1nnc(-c1ccco1)c2=O | 25 | 35 | 80 | 0 | 30 | 70 | – | – | – | – | – | – | – | – | – | – | – | – | – |
| 4.00 | 4.10 | O=c1c(-c2cccs2)nnc2n1CCN2c1ccccc1Cl | 50 | 80 | 90 | 95 | 100 | 100 | 50 | 60 | 75 | 75 | 95 | 95 | 80 | 95 | 100 | 3.82 | 3.89 | 4.00 | pIC50 (A549 [21]): 4.10; pIC50 (HeLa [22]): 3.82; pIC50 (HeLa [23]): 4.05; pIC50 (HeLa [24]): 4.10; pIC50 (T47D [25]): 4.10; pIC50 (T47D [26]): 4.10; pIC50 (T47D [27]): 4.10; pIC50 (TOV112D [28]): 4.05; pIC50 (TOV112D [29]): 4.10; pIC50 (TOV112D [30]): 4.10 |
| 4.05 | 4.05 | Cc1ccc(N2CCn3c2nnc(-c2cccs2)c3=O)cc1 | 80 | 100 | 100 | 95 | 100 | 100 | 90 | 95 | 100 | 90 | 95 | 100 | 90 | 100 | 100 | 4.05 | 4.10 | 4.10 | pIC50 (A549 [21]): 4.10; pIC50 (HeLa [22]): 4.00; pIC50 (HeLa [23]): 4.10; pIC50 (HeLa [24]): 4.10; pIC50 (T47D [25]): 4.05; pIC50 (T47D [26]): 4.10; pIC50 (T47D [27]): 4.10; pIC50 (TOV112D [28]): 4.05; pIC50 (TOV112D [29]): 4.10; pIC50 (TOV112D [30]): 4.10 |
| 3.96 | 4.05 | O=c1c(-c2cccs2)nnc2n1CCN2c1ccccc1 | 70 | 100 | 100 | 95 | 100 | 100 | 50 | 75 | 90 | 80 | 90 | 100 | 90 | 100 | 100 | 3.77 | 3.96 | 4.05 | pIC50 (A549 [21]): 4.10; pIC50 (HeLa [22]): 3.92; pIC50 (HeLa [23]): 4.05; pIC50 (HeLa [24]): 4.10; pIC50 (T47D [25]): 4.05; pIC50 (T47D [26]): 4.05; pIC50 (T47D [27]): 4.10; pIC50 (TOV112D [28]): 4.05; pIC50 (TOV112D [29]): 4.10; pIC50 (TOV112D [30]): 4.10 |
| – | – | O=c1c(-c2ccco2)nnc2n1CCN2c1ccc(Cl)cc1 | 50 | 75 | 90 | 0 | 15 | 15 | – | – | – | – | – | – | – | – | – | – | – | – | – |
| – | – | Cc1ccc(N2CCn3c2nnc(-c2ccco2)c3=O)cc1 | 50 | 50 | 80 | 40 | 60 | 80 | – | – | – | – | – | – | – | – | – | – | – | – | – |
| – | – | O=c1c(-c2ccco2)nnc2n1CCN2c1cccc(Cl)c1 | 80 | 80 | 95 | 20 | 50 | 80 | – | – | – | – | – | – | – | – | – | – | – | – | – |
| – | – | O=c1c(-c2ccco2)nnc2n1CCN2c1ccc(Cl)c(Cl)c1 | 50 | 50 | 95 | 10 | 20 | 40 | – | – | – | – | – | – | – | – | – | – | – | – | – |
| – | – | O=c1c(-c2ccco2)nnc2n1CCN2c1ccccc1Cl | 80 | 80 | 100 | 5 | 15 | 25 | – | – | – | – | – | – | – | – | – | – | – | – | – |
